Legend:
Selumetinib = compound: Cn1cnc2c(F)c(Nc3ccc(Br)cc3Cl)c(C(=O)NOCCO)cc21 [Selumetinib]; conditions: max 10 µM
In short: (§1)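 Cancer cell lines in 1536-well plates (7.5 μl DMEM/F12 or RPMI, 10% FBS) were held 24 hours at 37°C and 5% CO2 and then dosed for 72 hours at a final DMSO of typically 0.2%. Viability was taken from CellTiter-Glo 2.0 luminescence, scaled between blank-well and DMSO-well means. Curves were fitted as two-parameter logistic models with a non-linear mixed effects model, from which the single-agent IC50 was taken.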

Savolitinib = compound: C[C@@H](c1ccc2nccn2c1)n1nnc2ncc(-c3cnn(C)c3)nc21 [Savolitinib]; conditions: max 1 µM
In short: as §1

Crizotinib = compound: C[C@@H](Oc1cc(-c2cnn(C3CCNCC3)c2)cnc1N)c1c(Cl)ccc(F)c1Cl [Crizotinib]; conditions: max 10 µM
In short: as §1

Taselisib = compound: Cc1nc(-c2cn3c(n2)-c2ccc(-c4cnn(C(C)(C)C(N)=O)c4)cc2OCC3)n(C(C)C)n1 [Taselisib]; conditions: max 10 µM
In short: as §1

Dasatinib = compound: CC1=C(C(=CC=C1)Cl)NC(=O)C2=CN=C(S2)NC3=CC(=NC(=N3)C)N4CCN(CC4)CCO [Dasatinib]; conditions: max 2 µM
In short: as §1

SG3199 = compound: CC1=CN2[C@@H](C1)C=NC3=CC(=C(C=C3C2=O)OC)OCCCCCOC4=C(C=C5C(=C4)N=C[C@@H]6CC(=CN6C5=O)C)OC [SG3199]; conditions: max 0.001 µM
In short: as §1

SRA737 = compound: N#Cc1cnc(Nc2cc(NC[C@H]3CNCCO3)c(C(F)(F)F)cn2)cn1 [SRA737]; conditions: max 10 µM
In short: as §1

Olaparib = compound: O=C(c1cc(Cc2n[nH]c(=O)c3ccccc23)ccc1F)N1CCN(C(=O)C2CC2)CC1 [Olaparib]; conditions: max 10 µM
In short: as §1

5-Fluorouracil = compound: O=c1[nH]cc(F)c(=O)[nH]1 [5-Fluorouracil]; conditions: max 20 µM
In short: as §1

Prexasertib = compound: COc1cccc(OCCCN)c1-c1cc(Nc2cnc(C#N)cn2)n[nH]1 [Prexasertib]; conditions: max 1 µM
In short: as §1

AZD5363 = compound: C1CN(CCC1(C(=O)N[C@@H](CCO)C2=CC=C(C=C2)Cl)N)C3=NC=NC4=C3C=CN4 [AZD5363]; conditions: max 10 µM
In short: as §1

AZD2811 = compound: CCN(CCO)CCCOc1ccc2c(Nc3cc(CC(=O)Nc4cccc(F)c4)[nH]n3)ncnc2c1 [AZD2811]; conditions: max 1 µM
In short: as §1

Etoposide = compound: COc1cc([C@@H]2c3cc4c(cc3[C@@H](O[C@@H]3O[C@@H]5CO[C@@H](C)O[C@H]5[C@H](O)[C@H]3O)[C@H]3COC(=O)[C@H]23)OCO4)cc(OC)c1O [Etoposide]; conditions: max 10 µM
In short: as §1

Palbociclib = compound: CC(=O)c1c(C)c2cnc(Nc3ccc(N4CCNCC4)cn3)nc2n(C2CCCC2)c1=O [Palbociclib]; conditions: max 10 µM
In short: as §1

Trametinib = compound: CC(=O)Nc1cccc(-n2c(=O)n(C3CC3)c(=O)c3c(Nc4ccc(I)cc4F)n(C)c(=O)c(C)c32)c1 [Trametinib]; conditions: max 1 µM
In short: as §1

Doxorubicin = compound: COc1cccc2c1C(=O)c1c(O)c3c(c(O)c1C2=O)C[C@@](O)(C(=O)CO)C[C@@H]3O[C@H]1C[C@H](N)[C@H](O)[C@H](C)O1 [Doxorubicin]; conditions: max 1 µM
In short: as §1

MK-2206 = compound: NC1(c2ccc(-c3nc4ccn5c(=O)[nH]nc5c4cc3-c3ccccc3)cc2)CCC1 [MK-2206]; conditions: max 10 µM
In short: as §1

AZD6738 = compound: C[C@@H]1COCCN1C2=NC(=NC(=C2)C3(CC3)[S@](=N)(=O)C)C4=C5C=CNC5=NC=C4 [AZD6738]; conditions: max 10 µM
In short: as §1

Gefitinib = compound: COc1cc2ncnc(Nc3ccc(F)c(Cl)c3)c2cc1OCCCN1CCOCC1 [Gefitinib]; conditions: max 10 µM
In short: as §1

Alisertib = compound: COc1cc(Nc2ncc3c(n2)-c2ccc(Cl)cc2C(c2c(F)cccc2OC)=NC3)ccc1C(=O)O [Alisertib]; conditions: max 10 µM
In short: as §1

AZD8186 = compound: C[C@@H](Nc1cc(F)cc(F)c1)c1cc(C(=O)N(C)C)cc2c(=O)cc(N3CCOCC3)oc12 [AZD8186]; conditions: max 10 µM
In short: as §1

Lapatinib = compound: CS(=O)(=O)CCNCc1ccc(-c2ccc3ncnc(Nc4ccc(OCc5cccc(F)c5)c(Cl)c4)c3c2)o1 [Lapatinib]; conditions: max 10 µM
In short: as §1

AZD5153 = compound: COc1nnc2ccc(N3CCC(c4ccc(OCCN5CCN(C)C(=O)[C@H]5C)cc4)CC3)nn12 [AZD5153]; conditions: max 1 µM
In short: as §1

AZD1775 = compound: C=CCn1c(=O)c2cnc(Nc3ccc(N4CCN(C)CC4)cc3)nc2n1-c1cccc(C(C)(C)O)n1 [AZD1775]; conditions: max 3 µM
In short: as §1

Carboplatin = compound: C1CC(C1)(C(=O)[O-])C(=O)[O-].N.N.[Pt+2] [Carboplatin]; conditions: max 10 µM
In short: as §1

AZD0156 = compound: CN(C)CCCOc1ccc(-c2ccc3ncc4c(c3c2)n(C2CCOCC2)c(=O)n4C)cn1 [AZD0156]; conditions: max 3 µM
In short: as §1

AZD7648 = compound: Cc1cc2ncnn2cc1Nc1ncc2c(n1)n(C1CCOCC1)c(=O)n2C [AZD7648]; conditions: max 10 µM
In short: as §1

AZD5991 = compound: Cc1c2c(nn1C)CSCc1cc(n(C)n1)CSc1cc(c3ccccc3c1)OCCCc1c(C(=O)O)n(C)c3c-2c(Cl)ccc13 [AZD5991]; conditions: max 1 µM
In short: as §1

AZD4320 = compound: CN(CC[C@H](CSC1=CC=CC=C1)NC2=C(C=C(C=C2)S(=O)(=O)NC(=O)C3=CC=C(C=C3)N4CCC(CC4)[C@H](C5=CC=CC=C5C6=CC=C(C=C6)Cl)O)S(=O)(=O)C(F)(F)F)CCO [AZD4320]; conditions: max 1 µM
In short: as §1

Gemcitabine = compound: Nc1ccn([C@@H]2O[C@H](CO)[C@@H](O)C2(F)F)c(=O)n1 [Gemcitabine]; conditions: max 0.3 µM
In short: as §1

[1] = compound: O=C(Nc1ccc2[nH]nc(-c3ccncc3)c2c1)[C@@H]1CCN(CC(=O)N2CCN(c3ccc(-c4ncccn4)cc3)CC2)C1; conditions: max 5 µM
In short: as §1

Paclitaxel = compound: CC(=O)O[C@H]1C(=O)[C@@]2(C)[C@H]([C@H](OC(=O)c3ccccc3)[C@]3(O)C[C@H](OC(=O)[C@H](O)[C@@H](NC(=O)c4ccccc4)c4ccccc4)C(C)=C1C3(C)C)[C@]1(OC(C)=O)CO[C@@H]1C[C@@H]2O [Paclitaxel]; conditions: max 3 µM
In short: as §1

Venetoclax = compound: CC1(C)CCC(CN2CCN(c3ccc(C(=O)NS(=O)(=O)c4ccc(NCC5CCOCC5)c([N+](=O)[O-])c4)c(Oc4cnc5[nH]ccc5c4)c3)CC2)=C(c2ccc(Cl)cc2)C1 [Venetoclax]; conditions: max 1 µM
In short: as §1

SN-38 = compound: CCc1c2c(nc3ccc(O)cc13)-c1cc3c(c(=O)n1C2)COC(=O)[C@]3(O)CC [SN-38]; conditions: max 0.3 µM
In short: as §1

AZD1390 = compound: CC(C)n1c(=O)n(C)c2cnc3cc(F)c(-c4ccc(OCCCN5CCCCC5)nc4)cc3c21 [AZD1390]; conditions: max 0.3 µM
In short: as §1

Cell Line: K5 (Thyroid Gland Carcinoma)
- IC50, cell viability 72 h (Selumetinib): 2190 nM
- IC50, cell viability 72 h (Savolitinib): > 1000 nM
- IC50, cell viability 72 h (Crizotinib): 9.78 µM
- IC50, cell viability 72 h (Taselisib): 558 nM
- IC50, cell viability 72 h (Dasatinib): 604 nM
- IC50, cell viability 72 h (SG3199): > 1 nM
- IC50, cell viability 72 h (SRA737): > 10 µM
- IC50, cell viability 72 h (Olaparib): > 10 µM
- IC50, cell viability 72 h (5-Fluorouracil): > 20 µM
- IC50, cell viability 72 h (Prexasertib): 251 nM
- IC50, cell viability 72 h (AZD5363): > 10 µM
- IC50, cell viability 72 h (AZD2811): > 1000 nM
- IC50, cell viability 72 h (Etoposide): > 10000 nM
- IC50, cell viability 72 h (Palbociclib): > 10 µM
- IC50, cell viability 72 h (Trametinib): 14.3 nM
- IC50, cell viability 72 h (Doxorubicin): 266 nM
- IC50, cell viability 72 h (MK-2206): > 10 µM
- IC50, cell viability 72 h (AZD6738): > 10 µM
- IC50, cell viability 72 h (Gefitinib): > 10 µM
- IC50, cell viability 72 h (Alisertib): 0.638 µM
- IC50, cell viability 72 h (AZD8186): > 10 µM
- IC50, cell viability 72 h (Lapatinib): > 10 µM
- IC50, cell viability 72 h (AZD5153): 243 nM
- IC50, cell viability 72 h (AZD1775): > 3000 nM
- IC50, cell viability 72 h (Carboplatin): > 10 µM
- IC50, cell viability 72 h (AZD0156): > 3000 nM
- IC50, cell viability 72 h (AZD7648): > 10 µM
- IC50, cell viability 72 h (AZD5991): > 1000 nM
- IC50, cell viability 72 h (AZD4320): > 1000 nM
- IC50, cell viability 72 h (Gemcitabine): > 300 nM
- IC50, cell viability 72 h [1]: 3.88 µM
- IC50, cell viability 72 h (Paclitaxel): 56.1 nM
- IC50, cell viability 72 h (Venetoclax): > 1000 nM
- IC50, cell viability 72 h (SN-38): 150 nM
- IC50, cell viability 72 h (AZD1390): > 300 nM

Cell Line: LU-139 (Small Cell Lung Carcinoma)
- IC50, cell viability 72 h (Selumetinib): > 10000 nM
- IC50, cell viability 72 h (Savolitinib): > 1000 nM
- IC50, cell viability 72 h (Crizotinib): 9.53 µM
- IC50, cell viability 72 h (Taselisib): > 10000 nM
- IC50, cell viability 72 h (Dasatinib): > 2000 nM
- IC50, cell viability 72 h (SG3199): > 1 nM
- IC50, cell viability 72 h (SRA737): > 10 µM
- IC50, cell viability 72 h (Olaparib): > 10 µM
- IC50, cell viability 72 h (5-Fluorouracil): > 20 µM
- IC50, cell viability 72 h (Prexasertib): 413 nM
- IC50, cell viability 72 h (AZD5363): > 10 µM
- IC50, cell viability 72 h (AZD2811): > 1000 nM
- IC50, cell viability 72 h (Etoposide): 2430 nM
- IC50, cell viability 72 h (Palbociclib): > 10 µM
- IC50, cell viability 72 h (Trametinib): > 1000 nM
- IC50, cell viability 72 h (Doxorubicin): 513 nM
- IC50, cell viability 72 h (MK-2206): > 10 µM
- IC50, cell viability 72 h (AZD6738): > 10 µM
- IC50, cell viability 72 h (Gefitinib): > 10 µM
- IC50, cell viability 72 h (Alisertib): 5.74 µM
- IC50, cell viability 72 h (AZD8186): > 10 µM
- IC50, cell viability 72 h (Lapatinib): > 10 µM
- IC50, cell viability 72 h (AZD5153): 103 nM
- IC50, cell viability 72 h (AZD1775): 1210 nM
- IC50, cell viability 72 h (Carboplatin): > 10 µM
- IC50, cell viability 72 h (AZD0156): > 3000 nM
- IC50, cell viability 72 h (AZD7648): > 10 µM
- IC50, cell viability 72 h (AZD5991): > 1000 nM
- IC50, cell viability 72 h (AZD4320): 47.4 nM
- IC50, cell viability 72 h (Gemcitabine): 29.5 nM
- IC50, cell viability 72 h [1]: > 5 µM
- IC50, cell viability 72 h (Paclitaxel): 124 nM
- IC50, cell viability 72 h (Venetoclax): > 1000 nM
- IC50, cell viability 72 h (SN-38): 39.2 nM
- IC50, cell viability 72 h (AZD1390): > 300 nM
